Test results as given in paper PMC7520468, “Salvia ceratophylla L. from South of Jordan: new insights on chemical composition and biological activities” (Natural Products and Bioprospecting, 2020).
≈ marks a conversion by molar mass, not a printed value.

Legend:
[1] = tested on: L. donovani axenic amastigotes; test: L. donovani axenic amastigote assay (Alamar Blue); type: cell-based; conditions: Leishmania donovani; first Amastigote column; 72 h, 37 °C; tested concentrations (µg/mL) 20–0.8 extracts, 10–0.4 pure compounds and pentamidine, 2.0–0.08 amphotericin B; NA = not active
Procedure: (§1) EO and extracts (A-D) at a stock concentration of 20 mg/mL were dilute to 4 mg/mL with DMSO. The obtained solutions (4 mg/mL) were four-fold diluted with incomplete RPMI medium to 1 mg/mL. Pure compounds at a stock concentration of 2 mg/mL in DMSO were diluted four-fold with incomplete RPMI medium to 0.5 mg/mL.
(§2) The extracts and pure compounds (highest concentrations 20 µg/mL for extracts and 10 µg/mL for pure compounds) were subject to different tests, namely Leishmania donovani promastigote assay, L. donovani axenic amastigote assay, L. donovani THP1 macrophage amastigote assay, Trypanosoma brucei trypamastigotes assay and THP1 toxicity assay. Alamar Blue assay was perform as previously described by other authors.
These assays have been adapted to 384-well micro-plate format. A 3–4 days old culture of Leishmania donovani promastigotes harvested in the exponential growth phase was diluted with RPMI medium to 1 × 10^6 cells/mL for promastigote assays. […]
Samples were added to the L. donovani promastigotes, L. donovani axenic amastigotes or T. brucei trypamastigotes cultures. […] The plates were incubated at 26 °C for 72 h (37 °C for axenic amastigotes and T. brucei trypamastigotes) and growth of cultured parasites was determined by the Alamar Blue assay [32 33].

[2] = tested on: L. donovani promastigotes; test: Leishmania donovani promastigote assay (Alamar Blue); type: cell-based; conditions: 72 h, 26 °C, tested concentrations (µg/mL) 20–0.8 extracts, 10–0.4 pure compounds and pentamidine, 2.0–0.08 amphotericin B, NA = not active
Procedure: as §1, §2
(§3) These assays have been adapted to 384-well micro-plate format. A 3–4 days old culture of Leishmania donovani promastigotes harvested in the exponential growth phase was diluted with RPMI medium to 1 × 10^6 cells/mL for promastigote assays. A 3–4 days old culture of Leishmania donovani axenic amastigotes was diluted with RPMI medium to 2 × 10^6 cells/mL for axenic amastigote assays. A 2 days old culture of Trypanosoma brucei harvested in the exponential phase was diluted with Iscove's Modified Dulbecco's Medium (IMDM) to 5 × 10^3 cells/mL for the antitrypanosomal assay.
(§4) Samples were added to the L. donovani promastigotes, L. donovani axenic amastigotes or T. brucei trypamastigotes cultures. The extracts were initially test at single concentrations of […] for primary screening. The active extracts and pure compounds were test at three or six concentrations ranging from 10 to 0.0032 µg/mL. The plates were incubated at 26 °C for 72 h (37 °C for axenic amastigotes and T. brucei trypamastigotes) and growth of cultured parasites was determined by the Alamar Blue assay [32 33].

[3] = Cytotoxic activity, Neutral Red assay, LLC-PK1; type: cell-based; conditions: pig, LLC-PK1 kidney epithelial cells (non-cancerous), NA = not active at 10 µg/mL for pure compound, at 100 µg/mL for extracts
Procedure: (§5) All cell lines used in this study were purchase from American Type Culture Collection (ATCC, Rockville, MD). The cytotoxic activity of the EO, extracts isolated from S. ceratophylla and pure compounds was determined in vitro against various human cancer cells: skin malignant melanoma (SK-MEL), human KB carcinoma (KB), breast ductal carcinoma (BT-549), ovarian carcinoma (SK-OV-3), and in two non-cancerous mammalian kidney cell lines (LLC-PK1 and VERO). Cells were seed at a density of 25,000 cells/well and incubated during 24 h. The tested EO, extracts and pure compounds were added separately at studied concentrations and cells were re-incubated during 48 h. After incubation time, the viability of cells was assessed by using Neutral Red Dye as described. DMSO was use as negative control and doxorubicin as positive control.

[4] = tested on: ovarian carcinoma (SK-OV-3); test: Cytotoxic activity, Neutral Red assay, SK-OV-3; type: cell-based; conditions: Homo sapiens, 48 h, NA = not active at 10 µg/mL for pure compound, at 100 µg/mL for extracts
Procedure: as §5

[5] = Cytotoxic activity, Neutral Red assay, Vero; type: cell-based; conditions: African green monkey, Vero kidney fibroblast cells (non-cancerous), NA = not active at 10 µg/mL for pure compound, at 100 µg/mL for extracts
Procedure: as §5

[6] = tested on: breast ductal carcinoma (BT-549); test: Cytotoxic activity, Neutral Red assay, BT-549; type: cell-based; conditions: Homo sapiens, 48 h, NA = not active at 10 µg/mL for pure compound, at 100 µg/mL for extracts
Procedure: as §5

human KB carcinoma (KB) = test: Cytotoxic activity, Neutral Red assay, KB; type: cell-based; conditions: 48 h, NA = not active at 10 µg/mL for pure compound, at 100 µg/mL for extracts
Procedure: as §5

[7] = tested on: skin malignant melanoma (SK-MEL); test: Cytotoxic activity, Neutral Red assay, SK-MEL; type: cell-based; conditions: Homo sapiens; 48 h; NA = not active at 10 µg/mL for pure compound, at 100 µg/mL for extracts
Procedure: as §5

[8] = tested on: human HepG2 hepatoma cells; test: Inhibition of cellular oxidative stress assay (ABAP, DCFH-DA); type: cell-based
Procedure: The cellular antioxidant activity of S. ceratophylla EO and other extracts was measured in human HepG2 hepatoma cells This assay determines the ability of test samples to prevent intracellular generation of peroxyl radicals in response to 2,2- azobis (2-amidinopropane) dihydrochloride (ABAP, Sigma-Aldrich, St Louis, MO, USA).
HepG2 cells were culture in Dulbecco's Modified Eagle Medium (DMEM) supplemented with 10% fetal bovine serum (FBS), 50 units/mL penicillin and 50 µg/mL streptomycin. Cells were seed in 96-well plates (60,000 cells/well) and incubated for 24 h. The tested samples were diluted in serum free medium containing 25 µM 2^′,7′, dichoroflouresceine diacetate (DCFH-DA, Invitrogen, Carlsbad, CA, USA). The cells were wash with PBS and treated with test samples during 1 h. The medium containing tested samples was removed, ABAP (600 µM) was added and the plate was immediately placed on a Spectra Max plate reader for kinetic reading every 5 min during 1 h (37 °C, emission at 538 nm and excitation at 485 nm). Quercetin (Sigma-Aldrich) was use as positive control. To calculate the percentage of decrease in oxidative stress, the Area Under the Curve (AUC) of fluorescence versus time was used. Decrease in oxidative stress%=AUC control^100-[AUC tested sample×100]

NF-κB = test: Inhibition of NF-κB activity, luciferase reporter in SW 1353 cells; type: cell-based; conditions: Homo sapiens, SW1353; SW 1353, PMA 70 ng/mL, 8 h; NA = not active at tested concentration
Procedure: The inhibition activity of tested samples against NF-κB was evaluate as described. The SW 1353 human chondrosarcoma cell line was culture in a mixture of Dulbecco's Modified Eagle's Medium (DMEM) and Ham's F-12 Nutrient (DMEM/F12) supplemented with 10% FBS, 100 U/Ml penicillin and 100 µg/mL streptomycin. Cultured cells were washed in antibiotic and FBS-free DMEM/F12 medium and then re-suspended in FBS-free DMEM/F12 medium containing 2.5% FBS. NF-κB luciferase plasmid construct was added to the cell suspension in a concentration of 50 µg/mL and incubated for 5 min at 25 °C. The cells were transfected by electroporation at 160 V and one 70 ms pulse using BTX disposable cuvettes (model 640 in a BTX Electro Square Porator T 820—BTX I, San Diego, CA, USA), Transfected cells were plate in 96-well plates at a density of 1.25 × 10^5cells per well in 200 µL of DMEM/F12 containing 10% FBS and antibiotics. After incubation for 24 h, the cells were treated with test samples for 30 min and then induced with PMA (70 ng/mL) for 8 h. The inhibition of NF-κB activity by EO, other extracts, and pure compounds was calculated in comparison to vehicle control. The IC50 values were obtain from the dose curves. Parthenolide was use as positive control.

[9] = tested on: transcription factor Sp-1; test: Sp-1 inhibition; type: cell-based; conditions: NA = not active at tested concentration
[10] = tested on: NO production in mouse macrophage cells (RAW 264.7); test: Nitric oxide (NO) measurement, LPS-stimulated macrophages, Griess reagent; type: cell-based; conditions: RAW264.7, RAW 264.7, LPS 5 µg/mL, 24 h, NA = not active at tested concentration, read-out: NO inhibition IC50
Procedure: The NO inhibition by EO, extracts of S. ceratophylla and pure compounds, was assess by the following methodology. Briefly, mouse macrophage cells (RAW 264.7) were culture in phenol red free RPMI medium with 10% bovine calf serum and 100 U/mL penicillin and 100 µg/mL streptomycin.
Cells were seed in 96-well plates (50,000 cells/well) and incubated during 24 h. The tested samples were dilute in serum free medium, incubated during 30 min, then lipopolysaccharide (LPS, 5 µg/mL) was added and cells were incubated for further 24 h. The level of nitrite in the cell supernatant was measure by using Griess reagent. The inhibition of nitrite production by the tested samples was calculate in comparison to the vehicle control. Parthenolide (Sigma-Aldrich) was use as positive control. IC50 values were obtain from dose curves.

[11] = tested on: T. brucei brucei blood stream forms; set-up: method as in PMID 16557466; conditions: cited from earlier work
[12] = tested on: carrageenin-induced hind paw edema; set-up: method as in PMID 23334570; conditions: dose of 25 mg/kg, p = 0.03; cited from earlier work
[13] = tested on: L. amazonensis promastigotes; set-up: method as in PMID 12760864; conditions: cited from earlier work
[14] = tested on: several cancer cell lines; set-up: method as in earlier work; conditions: up to a concentration of 200 μg/mL; cited from earlier work
[15] = tested on: differentiated THP1 cells; test: THP1 toxicity assay (Alamar Blue); type: cell-based; conditions: Homo sapiens, THP-1; 48 h; tested concentrations (µg/mL) 20–0.8 extracts, 10–0.4 pure compounds and pentamidine, 2.0–0.08 amphotericin B; NA = not active
Procedure: Alamar Blue assay was perform as previously described by other authors. […] PMA was added to a final concentration of 25 ng/mL. A PMA treated culture was dispense in experimental culture plates and incubated overnight at 37 °C in a 5% CO2 incubator. The plates with differentiated THP1 cells were wash with serum-free medium. For THP1 toxicity assay, the diluted test samples (extracts or pure compounds) were add over differentiated THP1 cells and plates were incubated during 48 h at 37 °C in a 5% CO2 incubator. Cell growth was determined by the Alamar Blue assay.

[16] = tested on: T. brucei trypamastigotes; test: Trypanosoma brucei trypamastigotes assay (Alamar Blue); type: cell-based; conditions: 72 h, 37 °C, tested concentrations (µg/mL) 20–0.8 extracts and DFMO, 10–0.4 pure compounds, NA = not active
Procedure: as §1, §2, §3, §4

[17] = compounds of Strychnos spinosa EO

C[C@@H]1[C@H](O)[C@@H](C)/C=C/C=C/C=C/C=C/C=C/C=C/C=C/[C@H](O[C@@H]2O[C@H](C)[C@@H](O)[C@H](N)[C@@H]2O)C[C@@H]2O[C@](O)(C[C@@H](O)C[C@@H](O)[C@H](O)CC[C@@H](O)C[C@@H](O)CC(=O)O[C@H]1C)C[C@H](O)[C@H]2C(=O)O [Amphotericin B]
IC50 [1]: 0.181 µg/mL (≈ 0.196 µM)
IC50 [2]: 0.14 µg/mL (≈ 0.152 µM)
IC90 [2]: 0.324 µg/mL (≈ 0.351 µM)

COc1cccc2c1C(=O)c1c(O)c3c(c(O)c1C2=O)C[C@@](O)(C(=O)CO)C[C@@H]3O[C@H]1C[C@H](N)[C@H](O)[C@H](C)O1 [Doxorubicin]
IC50 at 48 h [3]: 1.2 µg/mL (≈ 2.21 µM)
IC50 [4]: 2 µg/mL (≈ 3.68 µM)
IC50 at 48 h [5]: > 5 µg/mL
IC50 [6]: 0.85 µg/mL (≈ 1.56 µM)
IC50 (human KB carcinoma (KB)): 1.4 µg/mL (≈ 2.58 µM)
IC50 [7]: 0.8 µg/mL (≈ 1.47 µM)

O=c1c(O)c(-c2ccc(O)c(O)c2)oc2cc(O)cc(O)c12 [Quercetin]
% decrease in oxidative stress ([8]; 25 µM, positive control): 75%

C=C1CC/C=C(\C)CC[C@@H]2[C@@H]1CC2(C)C [Caryophyllene, (-)trans-Caryophyllene]
% decrease in oxidative stress ([8]; 250 µg/mL, pure compounds, NA = not active at tested concentration): 31%
% decrease in oxidative stress ([8]; 500 µg/mL, pure compounds, NA = not active at tested concentration): 35%
IC50 (NF-κB): 45 µg/mL (≈ 220 µM)
IC50 [9]: 48 µg/mL (≈ 235 µM)

C=C1C(=O)O[C@H]2[C@H]1CC/C(C)=C/CC[C@@]1(C)O[C@@H]21 [Parthenolide]
IC50 (NF-κB): 0.33 µg/mL (≈ 1.33 µM)
IC50 [10]: 0.48 µg/mL (≈ 1.93 µM)

C=CC(C)(O)CCC=C(C)CCC=C(C)C (mixture of isomers) [nerolidol]
IC50 towards Trypanosoma [11, 17]: 1.7 µg/mL
selectivity index (SI) towards Trypanosoma [11, 17]: 35.7

C=CC(C)(O)CCC=C(C)C (stereo not drawn) [Linalool]
inhibition of carrageenin-induced hind paw edema [12]: 55%
MIC, viability of L. amazonensis promastigotes [13]: 0.085 ng/mL
IC50 towards Trypanosoma [11, 17]: 2.5 µg/mL (≈ 16.2 µM)
IC50 [10]: 18 µg/mL (≈ 117 µM)
cytotoxic activity against several cancer cell lines [14]: did not exhibit cytotoxic activity

N=C(N)c1ccc(OCCCCCOc2ccc(C(=N)N)cc2)cc1 [Pentamidine]
IC90 [15]: 1.74 µg/mL (≈ 5.1 µM)
IC50 [1]: 3.8 µg/mL (≈ 11.2 µM)
IC50 [2]: 1.02 µg/mL (≈ 3.01 µM)
IC90 [2]: 9.28 µg/mL (≈ 27.3 µM)

NCCC[C@](N)(C(=O)O)C(F)F [α-difluoromethylornithine]
T. brucei IC50 [16]: 4.792 µg/mL
T. brucei IC90 [16]: 7.760 µg/mL

CC1=CC[C@@H](C(C)(C)O)CC1 [α-Terpineol]
activity against T. brucei brucei blood stream forms [11]: slightly active
IC50 (NF-κB): 100 µg/mL (≈ 648 µM)
IC50 ([16]; Trypanosoma brucei): 6.04 µg/mL (≈ 39.2 µM)
IC90 ([16]; Trypanosoma brucei): 8.22 µg/mL (≈ 53.3 µM)
